Consider 6 molecules from US20040204375A1, “Gene delivery compounds” (priority 2001, published 2004).

For test [1], the system named is HT29 cells. Nature of the test: Screening assay for gene transfer activators: adenovirus luciferase or β-galactosidase constructs on confluent cells with test compound. Further details: key to Activity (gene transfer activator): +++ = more active; ++ = active; + = less active. Conditions: for Activity (gene transfer activator): gene transfer in presence vs absence of test compound. The class given is cell-based, human. The protocol:
A gene transfer activating compound is identified by an assay which determines whether gene transfer occurs to a greater extent in the presence of a test compound than in the absence. For example, confluent cells plated in multi-well cell culture units are exposed to adenovirus luciferase or β-galactosidase constructs in the presence of the test compound. The test compound is administered to cells before, after or concurrently with the adenovirus. The extent of gene transfer is measured by visual inspection or quantitative measurement of luciferase or β-galactosidase in the presence and absence of the test compound.
HT29 cells are grown in 96-well plates. The cells are seeded at near confluency, about 300,000 cells per well, and infected with adenovirus 3-4 days later. […] For screening purposes, cells are grown on plastic. […] The activity of candidate compounds is also confirmed using polarized monolayers grown on filters. Once confluent, HT29 cells are very difficult to transduce with adenoviral constructs. Fewer than 1 in 100 cells express adenoviral transgenes at multiplicity of infection (MOI) of approximately 50. A replication deficient adenovirus encoding firefly luciferase or the E. coli LacZ gene (β-galactosidase) at an MOI of 50 for each well of cells in low serum medium is applied for 4 hours at 37° C. Test drugs are incubated along with the virus. Forty-eight hours later, the cells are assayed for β-galactosidase or luciferase by standard techniques. For example, β-galactosidase is assayed by incubating cells with a β-galactosidase substrate such as 1 mg/ml X-gal 5-bromo-4-chloro-3-indolyl B-D-galactopyranoside (X-gal), overnight at 37° C. When X-gal is cleaved by β-galactosidase, a bright blue precipitate is formed. The intensity of the blue color can be estimated visually or measured by optical densitometry to evaluate the efficiency of adenoviral transduction. Luciferase is assayed using a commercially available kit (Promega) which allows quantitative measurements of adenoviral gene transfer.

The test system of test [2] is PC-3 human prostate cell tumors. Nature of the test: In vivo adenoviral gene transfer to prostate tumors, PNP activity (Example 5). Further details: species or system mice. The note with it: 1 mM compound, 2-3×10^9 adenoviral particles per tumor, FIG. 5. As to the method: Prostate tumors are established in suitable hosts and PNP activity assayed in the presence or absence of adenovirus. Approximately 2-3×10^9 adenoviral particles are administered per tumor in the presence of 1 mM of compound 6975 or in the absence of the compound. Transgene activity is also assayed in livers. Further details of the method are described in (3).

The test system of test [3] is HT29 cells. Nature of the test: Adenoviral LacZ gene transfer to confluent HT29 cells, β-galactosidase assay (Example 2). The class given is cell-based, human. The note with it: for activation of adenovirus gene transfer: HT29 cells, LacZ adenovirus MOI 0.1-10, 4 hours, assay 48 hours later. The protocol:
HT29 or HeLa cells are grown in 96-well plates. The HT29 cells are seeded at near confluency, about 300,000 cells per well, and infected with adenovirus 3-4 days later. Confluent HeLa cells are used as a positive control. […] A replication deficient adenovirus encoding the E. coli LacZ gene is applied at an MOI of 0.1-10 to wells of cells in low serum medium for 4 hours at 37° C. Gene transfer activating compounds are incubated along with the virus at concentrations of 10 micromolar or 100 micromolar. A set of cells is incubated with virus but no gene transfer activating compound. Forty-eight hours later, the cells are assayed for β-galactosidase by standard techniques. […] FIGS. 2 and 6 illustrate the results using compound 6975 and 8496 respectively.

Test [4] deals with IB3 cystic fibrosis airway epithelial cells. The test is described as follows: Adenoviral luciferase gene transfer to IB3 cells (Example 3). Conditions: 100 micromolar compound, MOI 5 or 10, FIG. 3. The class given is cell-based. The protocol:
IB3 cystic fibrosis airway epithelial cells are grown in 96-well plates. The cells are seeded at near confluency, about 300,000 cells per well, and infected with adenovirus 3-4 days later. A replication deficient adenovirus encoding luciferase is applied at an MOI of 5 or 10 to wells of cells in low serum medium for 4 hours at 37° C. Compound 6975 is incubated along with the virus at a concentration of 100 micromolar. A set of cells is incubated with virus but no gene transfer activating compound. Forty-eight hours later, the cells are assayed for luciferase by standard techniques. FIG. 3 presents the results of this assay in a graph.

The subject of test [5] is HT29 cells. The test is described as follows: Adenoviral LacZ gene transfer to HT29 cells, comparison with EGTA (Example 4). The class given is cell-based, human. Conditions: 100 micromolar compound vs 5 millimolar EGTA, MOI 10. As to the method: HT29 cells are grown in 96-well plates. The cells are seeded at near confluency, about 300,000 cells per well, and infected with adenovirus 3-4 days later. […] A replication deficient adenovirus encoding LacZ is applied at an MOI of 10 to wells of cells in low serum medium for 4 hours at 37° C. Compound 6975 is incubated along with the virus at a concentration of 100 micromolar. A second set of cells is incubated with virus but no gene transfer activating compound and a third set of cells is incubated with virus and 5 millimolar EGTA. Forty-eight hours later, the cells are assayed for […] by standard techniques.

For `C/C(=N/NC(=N)NCc1ccccn1)c1ccccn1` [Compound 7064], the “Activity (gene transfer activator)” value in the test on HT29 cells [1] is “+”.
On the same count and under the same terms, in the case of `[H]/N=C(\N)N/N=C(\C)c1ccccn1` [Compound 6883] it was “+”.
For `[H]/N=C(/N/N=C(\C)c1ccccn1)Nc1ccccc1` [Compound 6975], in test [2], the “in vivo adenoviral gene transfer to tumors” value is “activates in vivo adenoviral gene transfer to PC-3 human prostate cell tumors in mice”. The “activation of adenovirus gene transfer” value in the test on HT29 cells [3] (10 micromolar compound) and in the test with HT29 cells [3] (100 micromolar compound) was “show activation of adenovirus gene transfer” each time. In addition, in test [4], the “adenoviral gene transfer of luciferase to IB3 cells” value is recorded as “activates adenoviral gene transfer of luciferase”. For the same molecule, the “activating adenovirus-mediated gene transfer and expression in cells” value in the test with HT29 cells [1] (FIG. 1) is “effective in activating adenovirus-mediated gene transfer and expression in cells”. For the same molecule, in the test on HT29 cells [1], the “Activity (gene transfer activator)” value is given as “+++”. For the same molecule, the “adenovirus gene transfer efficiency compared with EGTA” value in the test with HT29 cells [5] is given as “activates adenovirus gene transfer more efficiently than EGTA”.
Regarding `C/C(=N/N=C(/N)NO)c1ccccn1` [Compound 7036], in the test with HT29 cells [1], the “Activity (gene transfer activator)” value is on record as “++”.
On to `[H]/N=c1/ncn([C@@H]2O[C@H](CO)[C@@H](O)[C@H]2O)c2[nH]cnc12` [Compound 8496], for which the “adenoviral gene transfer of LacZ to HT29 cells” value in the test on HT29 cells [3] (FIG. 6) is recorded as “activates adenoviral gene transfer of LacZ to HT29 cells”. The “activation of adenovirus gene transfer” value in the test with HT29 cells [3] (10 micromolar compound) and in the test with HT29 cells [3] (100 micromolar compound) was “show activation of adenovirus gene transfer” throughout. Moreover, the “Activity (gene transfer activator)” value in the test on HT29 cells [1] is listed as “+++”.
In the case of `[H]/N=C(/N/N=C(\C)c1ccccn1)Nc1ccccc1` [Compound 6898], the “Activity (gene transfer activator)” value in the test on HT29 cells [1] is on record as “+”.
